The record followed here is PubChem BioAssay AID256 (DTP/NCI, 2004).

Several values for one entry are separate records, joined by “and”; a condition that tells them apart may be missing. Identical values can stand only once. Toxic doses and inconclusive results are not listed.

For the assay, the system named is CD2F1 mice, L1210 leukemia ip, survival T/C. Briefly: NCI In Vivo Anticancer Drug Screen. Data for tumor model L1210 Leukemia (intraperitoneal) in CD2F1 (CDF1) mice. To be noted: higher = longer survival. The procedure, abridged:
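Tumor-bearing mice (transplanted tumor) were split into treated and vehicle control groups, and the measured endpoint of each treated group was divided by that of its vehicle controls.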

[1] abbreviates: endpoint: mean survival time, dose: 100.0 mg/kg/injection, schedule: Q04DX003 (ip), vehicle: saline with Tween-80.
Where [2] appears, read: endpoint: mean survival time, dose: 200.0 mg/kg/injection, schedule: Q04DX003 (ip), vehicle: saline with Tween-80.
[3] abbreviates: endpoint: mean survival time, dose: 400.0 mg/kg/injection, schedule: Q04DX003 (ip), vehicle: saline with Tween-80.

As to `CCCCNC(=S)NNC(=O)Cn1cnc2c1c(=O)n(C)c(=O)n2C`, the T/C reads like this: (endpoint: mean survival time, dose: 12.5 mg/kg/injection, schedule: Q01DX005 (ip), vehicle: distilled water + Tween-80) 101 % of control; (endpoint: mean survival time, dose: 25.0 mg/kg/injection, schedule: Q01DX005 (ip), vehicle: distilled water + Tween-80) 101 % of control; (endpoint: mean survival time, dose: 50.0 mg/kg/injection, schedule: Q01DX005 (ip), vehicle: distilled water + Tween-80) 97 % of control; (endpoint: mean survival time, dose: 100.0 mg/kg/injection, schedule: Q01DX005 (ip), vehicle: distilled water + Tween-80) 97 % of control; (endpoint: mean survival time, dose: 200.0 mg/kg/injection, schedule: Q01DX005 (ip), vehicle: distilled water + Tween-80) 101 % of control.
In the case of `CN(C1=CC(=O)c2ccccc2C1=O)C1CCCCC1`, the T/C is, setting by setting: under setting [1], 93 % of control; under setting [2], 93 % of control; under setting [3], 104 % of control.
Turning to `Cc1ccc(NS(=O)(=O)c2cccc([N+](=O)[O-])c2)cc1Cl`, the T/C under setting [1] was 92 % of control, the T/C under setting [2] was 97 % of control and the T/C under setting [3] was 92 % of control.
For `COc1ccc2c(c1)-c1nn(CCCN(C)C)c3ccc([N+](=O)[O-])c(c13)N2`, the T/C is, setting by setting: (endpoint: median survival time, dose: 3.12 mg/kg/injection, schedule: Q01DX005 (ip), vehicle: water) 152 % of control; (endpoint: median survival time, dose: 3.12 mg/kg/injection, schedule: Q01DX009 (ip), vehicle: water) 168 % of control; (endpoint: median survival time, dose: 6.25 mg/kg/injection, schedule: Q01DX005 (ip), vehicle: water) 152 % of control; (endpoint: median survival time, dose: 6.25 mg/kg/injection, schedule: Q01DX009 (ip), vehicle: water) 216 % of control; (endpoint: median survival time, dose: 7.5 mg/kg/injection, schedule: Q01DX005 (ip), vehicle: water) 164 % of control; (endpoint: median survival time, dose: 12.5 mg/kg/injection, schedule: Q01DX005 (ip), vehicle: water) 180 % of control. Moreover, the T/C is 113 % of control (endpoint: median survival time, dose: 12.5 mg/kg/injection, schedule: Q01DX009 (ip), vehicle: water); 225 % of control (endpoint: median survival time, dose: 20.83 mg/kg/injection, schedule: Q01DX005 (ip), vehicle: water); 109 % of control (endpoint: median survival time, dose: 25.0 mg/kg/injection, schedule: Q01DX005 (ip), vehicle: water); 107 % of control (endpoint: median survival time, dose: 34.72 mg/kg/injection, schedule: Q01DX005 (ip), vehicle: water); 92 % of control and 94 % of control (endpoint: median survival time, dose: 50.0 mg/kg/injection, schedule: Q01DX005 (ip), vehicle: water); 116 % of control (endpoint: median survival time, dose: 50.0 mg/kg/injection, schedule: Q01DX009 (ip), vehicle: water).
As to `O=c1n(CC2CO2)c(=O)n(CC2CO2)n1CC1CO1` (stereo not given), the T/C runs as follows: (endpoint: median survival time, dose: 1.5 mg/kg/injection, schedule: Q01DX009 (ip), vehicle: saline) 113 % of control; (endpoint: median survival time, dose: 1.5 mg/kg/injection, schedule: Q03HX024 (ip), vehicle: saline) 121 % of control; (endpoint: median survival time, dose: 3.0 mg/kg/injection, schedule: Q03HX024 (ip), vehicle: saline) 195 % of control; (endpoint: median survival time, dose: 6.0 mg/kg/injection, schedule: Q01DX009 (ip), vehicle: saline) 182 % of control; (endpoint: median survival time, dose: 6.0 mg/kg/injection, schedule: Q03HX024 (ip), vehicle: saline) 253 % of control; (endpoint: median survival time, dose: 6.25 mg/kg/injection, schedule: Q01DX009 (ip), vehicle: saline) 168 % of control and 277 % of control. Moreover, the T/C is 107 % of control (endpoint: median survival time, dose: 7.5 mg/kg/injection, schedule: Q01DX003 (iv), vehicle: saline); 151 % of control (endpoint: median survival time, dose: 7.5 mg/kg/injection, schedule: Q01DX005 (ip), vehicle: saline); 192 % of control (endpoint: median survival time, dose: 10.0 mg/kg/injection, schedule: Q01DX005 (ip), vehicle: saline); 365 % of control (endpoint: median survival time, dose: 12.0 mg/kg/injection, schedule: Q01DX009 (ip), vehicle: saline); 86 % of control (endpoint: median survival time, dose: 12.0 mg/kg/injection, schedule: Q03HX008 (ip), vehicle: saline); 106 % of control (endpoint: median survival time, dose: 12.0 mg/kg/injection, schedule: Q03HX024 (ip), vehicle: saline). For the same compound, the T/C (endpoint: median survival time, dose: 12.5 mg/kg/injection, schedule: Q01DX009 (ip), vehicle: saline) is 231 % of control and 277 % of control; the T/C (endpoint: median survival time, dose: 15.0 mg/kg/injection, schedule: Q01DX005 (ip), vehicle: saline) was 210 % of control and 240 % of control; the T/C (endpoint: median survival time, dose: 15.0 mg/kg/injection, schedule: Q04DX003 (ip), vehicle: saline) was 182 % of control; the T/C (endpoint: median survival time, dose: 15.0 mg/kg/injection, schedule: Q08DX002 (ip), vehicle: saline) is 159 % of control; the T/C (endpoint: median survival time, dose: 24.0 mg/kg/injection, schedule: Q01DX009 (ip), vehicle: saline) was 365 % of control; the T/C (endpoint: median survival time, dose: 25.0 mg/kg/injection, schedule: Q01DX001 (iv), vehicle: saline) is 120 % of control. For the same compound, the T/C is 121 % of control and 277 % of control (endpoint: median survival time, dose: 25.0 mg/kg/injection, schedule: Q01DX009 (ip), vehicle: saline); 195 % of control (endpoint: median survival time, dose: 30.0 mg/kg/injection, schedule: Q01DX001 (ip), vehicle: saline); 171 % of control (endpoint: median survival time, dose: 30.0 mg/kg/injection, schedule: Q01DX003 (iv), vehicle: saline); 92 % of control (endpoint: median survival time, dose: 30.0 mg/kg/injection, schedule: Q01DX005 (ip), vehicle: saline); 731 % of control (endpoint: median survival time, dose: 30.0 mg/kg/injection, schedule: Q04DX003 (ip), vehicle: saline); 198 % of control (endpoint: median survival time, dose: 30.0 mg/kg/injection, schedule: Q08DX002 (ip), vehicle: saline). For the same compound, the T/C by setting is: (endpoint: median survival time, dose: 40.0 mg/kg/injection, schedule: Q01DX001 (ip), vehicle: saline) 186 % of control; (endpoint: median survival time, dose: 40.0 mg/kg/injection, schedule: Q04DX003 (ip), vehicle: saline) 292 % of control; (endpoint: median survival time, dose: 40.0 mg/kg/injection, schedule: Q08DX002 (ip), vehicle: saline) 256 % of control; (endpoint: median survival time, dose: 48.0 mg/kg/injection, schedule: Q01DX009 (ip), vehicle: saline) 106 % of control; (endpoint: median survival time, dose: 50.0 mg/kg/injection, schedule: Q01DX001 (iv), vehicle: saline) 157 % of control; (endpoint: median survival time, dose: 50.0 mg/kg/injection, schedule: Q08DX002 (ip), vehicle: saline) 731 % of control. Moreover, the T/C runs as follows: (endpoint: median survival time, dose: 60.0 mg/kg/injection, schedule: Q01DX001 (ip), vehicle: saline) 731 % of control; (endpoint: median survival time, dose: 60.0 mg/kg/injection, schedule: Q01DX005 (oral), vehicle: saline) 182 % of control; (endpoint: median survival time, dose: 80.0 mg/kg/injection, schedule: Q01DX001 (ip), vehicle: saline) 97 % of control; (endpoint: median survival time, dose: 80.0 mg/kg/injection, schedule: Q01DX001 (iv), vehicle: saline) 89 % of control; (endpoint: median survival time, dose: 160.0 mg/kg/injection, schedule: Q01DX001 (oral), vehicle: saline) 175 % of control; (endpoint: median survival time, dose: 240.0 mg/kg/injection, schedule: Q01DX001 (oral), vehicle: saline) 97 % of control.
For `O=C(O)c1c2c(nc3ccccc13)-c1cccc3c1N(CCC3)C2`, the T/C is 100 % of control (endpoint: mean survival time, dose: 6.25 mg/kg/injection, schedule: Q01DX009 (ip), vehicle: other); 103 % of control (endpoint: mean survival time, dose: 12.5 mg/kg/injection, schedule: Q01DX009 (ip), vehicle: other); 103 % of control (endpoint: mean survival time, dose: 25.0 mg/kg/injection, schedule: Q01DX009 (ip), vehicle: other); 100 % of control (endpoint: mean survival time, dose: 50.0 mg/kg/injection, schedule: Q01DX009 (ip), vehicle: other); 100 % of control (endpoint: mean survival time, dose: 100.0 mg/kg/injection, schedule: Q01DX001 (ip), vehicle: other); 97 % of control (endpoint: mean survival time, dose: 200.0 mg/kg/injection, schedule: Q01DX001 (ip), vehicle: other). Also, the T/C (endpoint: mean survival time, dose: 400.0 mg/kg/injection, schedule: Q01DX001 (ip), vehicle: other) was 97 % of control.
Take `CC1(C)CC2(OC2c2ccccc2)C(=O)c2ccccc21` (stereo not given): the T/C (endpoint: mean survival time, dose: 12.5 mg/kg/injection, schedule: Q01DX009 (ip), vehicle: Klucel (hydroxypropylcellulose) (HPC)) is 96 % of control; the T/C (endpoint: mean survival time, dose: 25.0 mg/kg/injection, schedule: Q01DX009 (ip), vehicle: Klucel (hydroxypropylcellulose) (HPC)) is 92 % of control; the T/C (endpoint: mean survival time, dose: 50.0 mg/kg/injection, schedule: Q01DX009 (ip), vehicle: Klucel (hydroxypropylcellulose) (HPC)) is 87 % of control; the T/C (endpoint: mean survival time, dose: 100.0 mg/kg/injection, schedule: Q01DX009 (ip), vehicle: Klucel (hydroxypropylcellulose) (HPC)) was 96 % of control; the T/C (endpoint: mean survival time, dose: 200.0 mg/kg/injection, schedule: Q01DX009 (ip), vehicle: Klucel (hydroxypropylcellulose) (HPC)) is 94 % of control; the T/C (endpoint: mean survival time, dose: 400.0 mg/kg/injection, schedule: Q01DX009 (ip), vehicle: Klucel (hydroxypropylcellulose) (HPC)) was 94 % of control.
For `Cc1ccc(NC(=O)c2ccc(C(=O)Nc3ccc(C)c(Cl)c3)cc2)cc1Cl`, the T/C is 89 % of control (endpoint: mean survival time, dose: 100.0 mg/kg/injection, schedule: Q01DX001 (ip), vehicle: saline); 98 % of control (endpoint: mean survival time, dose: 200.0 mg/kg/injection, schedule: Q01DX001 (ip), vehicle: saline); 89 % of control (endpoint: mean survival time, dose: 400.0 mg/kg/injection, schedule: Q01DX001 (ip), vehicle: saline).
